In US4876247A, “Methlenediphosphonic acid derivatives, and antirheumatic pharmaceutical composition in which they are present and methods of using same” (Sanofi, priority 1984, dated 1989):

Tested on: adjuvant arthritis
Test: "In vivo" study: adjuvant arthritis (Mycobacterium tuberculosis) in rats, weight of the right rear paw
Set-up: species or system male Sprague-Dawley rats
Conditions: oral, 0.16 mmol/kg/day, 6 days/week for 3 weeks, versus untreated arthritic control rats
Experimental: "IN VIVO" STUDY: ADJUVANT ARTHRITIS
The injection of rats with mycobacterium causes a polyarthritis and in certain respects resembles human rheumatoid arthritis.
A suspension of Mycobacterium tuberculosis (0.4 mg) in paraffin oil (0.05 ml) is injected intradermally into the tail of male Sprague-Dawley rats having a mean weight of 150 g.
These rats are divided into 2 groups of 14 animals.
The animals of the 1st group are treated 6 days/week for 3 weeks;
either subcutaneously with doses ranging from 0.32 μmol to 32 μmol/kg/day,
or orally with a dose of 0.16 mmol/kg/day. The second group receives placebo and serves as the control group.
After 3 weeks of treatment, half the animals in each group are sacrificed; the other half are kept for 2 weeks without treatment and then sacrificed in turn.
After the animals have been sacrificed, the right rear paw is removed at the tribiotarsal joint and then weighed. The mean and the standard error of the weights are determined for each half-group.
The activity of the product is expresed as the percentage variation in the mean weight of the paws of the treated arthritic rats relative to that of the arthritic paws of the untreated rats (control rats).
For each of the products tested, the therapeutic activity is expressed as the percentage inhibition of the weight of the paw after 3 weeks of treatment. […]

## Cc1ccc(SCC(N)(P(=O)(O)O)P(=O)(O)O)cc1 [42 710 A]
Then 2 weeks without treatment
  % Inhibition of the weight of the paw 2 weeks after the end of the treatment: 7%
  % Inhibition of the weight of the paw at the end of the treatment (3 weeks): 19%
